Results taken from PubChem BioAssay (NCI).
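Five concentrations, 48 hours, 96-well plates. The concentration for 50% growth inhibition is given as GI50. The concentration for full growth arrest is given as TGI.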

What was measured:
Assay in all cases: NCI anticancer screen, dose series, 48 h
786-0 renal = test system: 786-0 renal
A498 renal = test system: A498 renal
A549 NSCLC = test system: A549 NSCLC
ACHN renal = test system: ACHN renal
BT-549 breast = test system: BT-549 breast
CAKI-1 renal = test system: CAKI-1 renal
CCRF-CEM leukemia = test system: CCRF-CEM leukemia
COLO 205 colon = test system: COLO 205 colon
DU-145 prostate = test system: DU-145 prostate
EKVX NSCLC = test system: EKVX NSCLC
HCC-2998 colon = test system: HCC-2998 colon
HCT-116 colon = test system: HCT-116 colon
HCT-15 colon = test system: HCT-15 colon
HL-60(TB) leukemia = test system: HL-60(TB) leukemia
HOP-62 NSCLC = test system: HOP-62 NSCLC
HOP-92 NSCLC = test system: HOP-92 NSCLC
HS 578T breast = test system: HS 578T breast
HT29 colon = test system: HT29 colon
IGROV1 ovarian = test system: IGROV1 ovarian
K-562 leukemia = test system: K-562 leukemia
KM12 colon = test system: KM12 colon
LOX IMVI melanoma = test system: LOX IMVI melanoma
M14 melanoma = test system: M14 melanoma
MALME-3M melanoma = test system: MALME-3M melanoma
MCF7 breast = test system: MCF7 breast
MDA-MB-231 breast = test system: MDA-MB-231 breast
MDA-MB-435 = test system: MDA-MB-435
MDA-MB-468 breast = test system: MDA-MB-468 breast
MOLT-4 leukemia = test system: MOLT-4 leukemia
NCI-H226 lung = test system: NCI-H226 lung
NCI-H23 lung = test system: NCI-H23 lung
NCI-H460 lung = test system: NCI-H460 lung
NCI-H522 lung = test system: NCI-H522 lung
NCI/ADR-RES ovarian = test system: NCI/ADR-RES ovarian
OVCAR-3 ovarian = test system: OVCAR-3 ovarian
OVCAR-4 ovarian = test system: OVCAR-4 ovarian
OVCAR-5 ovarian = test system: OVCAR-5 ovarian
OVCAR-8 ovarian = test system: OVCAR-8 ovarian
PC-3 prostate = test system: PC-3 prostate
RPMI-8226 leukemia = test system: RPMI-8226 leukemia
RXF 393 renal = test system: RXF 393 renal
SF-268 CNS = test system: SF-268 CNS
SF-295 CNS = test system: SF-295 CNS
SF-539 CNS = test system: SF-539 CNS
SK-MEL-2 melanoma = test system: SK-MEL-2 melanoma
SK-MEL-28 melanoma = test system: SK-MEL-28 melanoma
SK-MEL-5 melanoma = test system: SK-MEL-5 melanoma
SK-OV-3 ovarian = test system: SK-OV-3 ovarian
SN12C renal = test system: SN12C renal
SNB-19 CNS = test system: SNB-19 CNS
SNB-75 CNS = test system: SNB-75 CNS
SR leukemia = test system: SR leukemia
SW-620 colon = test system: SW-620 colon
T-47D breast = test system: T-47D breast
TK-10 renal = test system: TK-10 renal
U251 CNS = test system: U251 CNS
UACC-257 melanoma = test system: UACC-257 melanoma
UACC-62 melanoma = test system: UACC-62 melanoma
UO-31 renal = test system: UO-31 renal

NS(=O)(=O)c1ccc(NC(=O)CSc2ccc(-c3ccc(Cl)cc3)nn2)c(Br)c1
GI50 (786-0 renal): 11.3 µM | TGI (786-0 renal): 25.6 µM | GI50 (A498 renal): 14 µM | TGI (A498 renal): 28 µM | GI50 (A549 NSCLC): 11.7 µM | TGI (A549 NSCLC): 31.8 µM | GI50 (ACHN renal): 6.92 µM | TGI (ACHN renal): 19.6 µM | GI50 (BT-549 breast): 14.1 µM | TGI (BT-549 breast): 44.3 µM | GI50 (CAKI-1 renal): 11 µM | TGI (CAKI-1 renal): 24.4 µM | GI50 (CCRF-CEM leukemia): > 100 µM | TGI (CCRF-CEM leukemia): > 100 µM | GI50 (COLO 205 colon): 20.7 µM | TGI (COLO 205 colon): 65.5 µM | GI50 (DU-145 prostate): 12.1 µM | TGI (DU-145 prostate): 27.2 µM | GI50 (EKVX NSCLC): 11 µM | TGI (EKVX NSCLC): 25.8 µM | GI50 (HCC-2998 colon): 11 µM | TGI (HCC-2998 colon): 40.4 µM | GI50 (HCT-116 colon): 10.3 µM | TGI (HCT-116 colon): 29.6 µM | GI50 (HCT-15 colon): 11.8 µM | TGI (HCT-15 colon): 25.8 µM | GI50 (HL-60(TB) leukemia): 50.9 µM | TGI (HL-60(TB) leukemia): > 100 µM | GI50 (HOP-62 NSCLC): 2.93 µM | TGI (HOP-62 NSCLC): 10.8 µM | GI50 (HOP-92 NSCLC): 3.96 µM | TGI (HOP-92 NSCLC): 19.2 µM | GI50 (HS 578T breast): 2.8 µM | TGI (HS 578T breast): 12.4 µM | GI50 (HT29 colon): 15.9 µM | TGI (HT29 colon): 46.8 µM | GI50 (IGROV1 ovarian): 23.3 µM | TGI (IGROV1 ovarian): 76.4 µM | GI50 (K-562 leukemia): 20.4 µM | TGI (K-562 leukemia): > 100 µM | GI50 (KM12 colon): 36.3 µM | TGI (KM12 colon): > 100 µM | GI50 (LOX IMVI melanoma): 10.4 µM | TGI (LOX IMVI melanoma): 24.2 µM | GI50 (M14 melanoma): 32.4 µM | TGI (M14 melanoma): > 100 µM | GI50 (MALME-3M melanoma): 9.36 µM | TGI (MALME-3M melanoma): 22.4 µM | GI50 (MCF7 breast): 10.1 µM | TGI (MCF7 breast): 25.3 µM | GI50 (MDA-MB-231 breast): 3.7 µM | TGI (MDA-MB-231 breast): 14.6 µM | GI50 (MDA-MB-435): 32.6 µM | TGI (MDA-MB-435): > 100 µM | GI50 (MDA-MB-468 breast): 8.32 µM | TGI (MDA-MB-468 breast): 25 µM | GI50 (MOLT-4 leukemia): 48.3 µM | TGI (MOLT-4 leukemia): > 100 µM | GI50 (NCI-H226 lung): 2.62 µM | TGI (NCI-H226 lung): 9.4 µM | GI50 (NCI-H23 lung): 11.1 µM | TGI (NCI-H23 lung): 23.2 µM | GI50 (NCI-H460 lung): 7.22 µM | TGI (NCI-H460 lung): 22.3 µM | GI50 (NCI-H522 lung): 10.5 µM | TGI (NCI-H522 lung): 26.3 µM | GI50 (NCI/ADR-RES ovarian): 7.75 µM | TGI (NCI/ADR-RES ovarian): > 100 µM | GI50 (OVCAR-3 ovarian): 12.9 µM | TGI (OVCAR-3 ovarian): 27.6 µM | GI50 (OVCAR-4 ovarian): 10.4 µM | TGI (OVCAR-4 ovarian): 42.6 µM | GI50 (OVCAR-5 ovarian): 17.2 µM | TGI (OVCAR-5 ovarian): 51 µM | GI50 (OVCAR-8 ovarian): 10.3 µM | TGI (OVCAR-8 ovarian): 24.7 µM | GI50 (PC-3 prostate): 8.97 µM | TGI (PC-3 prostate): 49.2 µM | GI50 (RPMI-8226 leukemia): 96.9 µM | TGI (RPMI-8226 leukemia): > 100 µM | GI50 (RXF 393 renal): 2.99 µM | TGI (RXF 393 renal): 13.8 µM | GI50 (SF-268 CNS): 7.22 µM | TGI (SF-268 CNS): 34.4 µM | GI50 (SF-295 CNS): 5.13 µM | TGI (SF-295 CNS): 16.1 µM | GI50 (SF-539 CNS): 4.15 µM | TGI (SF-539 CNS): 15.8 µM | GI50 (SK-MEL-2 melanoma): 15.8 µM | TGI (SK-MEL-2 melanoma): 32 µM | GI50 (SK-MEL-28 melanoma): 12.3 µM | TGI (SK-MEL-28 melanoma): 28.8 µM | GI50 (SK-MEL-5 melanoma): 10.2 µM | TGI (SK-MEL-5 melanoma): 21.9 µM | GI50 (SK-OV-3 ovarian): 4.39 µM | TGI (SK-OV-3 ovarian): 15.1 µM | GI50 (SN12C renal): 26.1 µM | TGI (SN12C renal): 83.3 µM | GI50 (SNB-19 CNS): 3.75 µM | TGI (SNB-19 CNS): 14.9 µM | GI50 (SNB-75 CNS): 1.79 µM | TGI (SNB-75 CNS): 15 µM | GI50 (SR leukemia): 50.5 µM | TGI (SR leukemia): > 100 µM | GI50 (SW-620 colon): 32.8 µM | TGI (SW-620 colon): > 100 µM | GI50 (T-47D breast): 4.59 µM | TGI (T-47D breast): 21.8 µM | GI50 (TK-10 renal): 18 µM | TGI (TK-10 renal): 38.9 µM | GI50 (U251 CNS): 5.15 µM | TGI (U251 CNS): 21.7 µM | GI50 (UACC-257 melanoma): 31.4 µM | TGI (UACC-257 melanoma): > 100 µM | GI50 (UACC-62 melanoma): 13.7 µM | TGI (UACC-62 melanoma): 34.1 µM | GI50 (UO-31 renal): 29.5 µM | TGI (UO-31 renal): > 100 µM
